Source: publication PMC10612255, “Discovery of novel 2,3,4,5-tetrahydrospiro[benzo[c]azepine-1,1’-cyclohexan]-5-ol derivatives as PARP-1 inhibitors” (BMC Chemistry, 2023)
Like-named read-outs stand apart in the source and are kept apart here.

Experiments:
OVCAR-3 = assay: MTT assay, anti-proliferative effect on OVCAR-3 cells; assay type: cell-based, human; settings: read-out: IC50 OVCAR-3
Protocol: (§1) A549, OVCAR-3, HCT-116, and MCF-7 were purchased from American type culture collection (ATCC, USA). […] And all cell lines used in the experiment were tested for mycoplasma contamination every two weeks.
(§2) A549, OVCAR-3, HCT-116, and MCF-7 cells were seeded in 96-well plates, and then treated with target compounds for 72 h. Then, 20 µL MTT (5 mg/mL, in PBS) was added into each well, and dissolved in 150 µL DMSO after incubation for 4 h. Finally, the absorbance was measured with microplate reader (490 nm).

MCF-7 = assay: MTT assay, anti-proliferative effect on MCF-7 cells; assay type: cell-based, human; settings: read-out: IC50 MCF-7
Protocol: as §1, §2

A549 = assay: MTT assay, anti-proliferative effect on A549 cells; assay type: cell-based, human; settings: read-out: IC50 A549
Protocol: as §1, §2

HCT-116 = assay: MTT assay, anti-proliferative effect on HCT-116 cells; assay type: cell-based, human; settings: read-out: IC50 HCT-116
Protocol: as §1, §2

IC50 (OVCAR-3; OVCAR-3, human ovarian cancer cell line, MTT, 72 h, Mean ± SD) | IC50 (MCF-7; MCF7, human breast cancer cell line, MTT, 72 h, Mean ± SD) | IC50 (A549; A549, human lung adenocarcinoma cell line, MTT, 72 h, Mean ± SD) | IC50 (HCT-116; HCT-116, human colon cancer cell line, MTT, 72 h, Mean ± SD) | SMILES | IC50 (OVCAR-3; Homo sapiens, OVCAR-3, 72 h) | IC50 (MCF-7; Homo sapiens, MCF7, 72 h) | melting point | IC50 (A549; Homo sapiens, A549, 72 h) | IC50 (HCT-116; Homo sapiens, HCT-116, 72 h)
 |  |  |  | COc1cccc(-n2cc(CN3CCC(O)c4ccccc4C34CCCCC4)nn2)c1 (centres unmarked) [Compound 11 L, 2-((1-(3-methoxyphenyl)-1 H-1,2,3-triazol-4-yl)methyl)-2,3,4,5-tetrahydrospiro[benzo[c]azepine-1,1’-cyclohexan]-5-ol] | 6.14 ± 0.56 µM | 8.54 ± 1.65 µM | 172.3 to 174.1 °C | 11.1 ± 2.98 µM | 11.7 ± 4.88 µM
 |  |  |  | Cc1ccc(-n2cc(CN3CCC(O)c4ccccc4C34CCCCC4)nn2)cc1 (centres unmarked) [Compound 11 g, 2-((1-(p-tolyl)-1 H-1,2,3-triazol-4-yl)methyl)-2,3,4,5-tetrahydrospiro[benzo[c]azepine-1,1’-cyclohexan]-5-ol] | 4.64 ± 0.99 µM | 7.96 ± 1.1 µM | 164.3 to 165.2 °C | 6.84 ± 1.68 µM | 9.81 ± 2.89 µM
 |  |  |  | OC1CCN(Cc2cn(-c3ccccc3Cl)nn2)C2(CCCCC2)c2ccccc21 (centres unmarked) [Compound 11 h, 2-((1-(2-chlorophenyl)-1 H-1,2,3-triazol-4-yl)methyl)-2,3,4,5-tetrahydrospiro[benzo[c]azepine-1,1’-cyclohexan]-5-ol] | 4.44 ± 0.1 µM | 6.5 ± 1.78 µM | 167.9 to 168.3 °C | 15.1 ± 1.18 µM | 8.97 ± 3.16 µM
 |  |  |  | OC1CCN(Cc2cn(-c3ccccc3)nn2)C2(CCCCC2)c2ccccc21 (centres unmarked) [Compound 11a, 2-((1-phenyl-1 H-1,2,3-triazol-4-yl)methyl)-2,3,4,5-tetrahydrospiro[benzo[c]azepine-1,1’-cyclohexan]-5-ol] | 13.6 ± 2.45 µM | 15.5 ± 2.53 µM |  | 9.5 ± 1.23 µM | 10.3 ± 2.74 µM
 |  |  |  | OC1CCN(Cc2cn(-c3cccc(F)c3)nn2)C2(CCCCC2)c2ccccc21 (centres unmarked) [Compound 11c, 2-((1-(3-fluorophenyl)-1 H-1,2,3-triazol-4-yl)methyl)-2,3,4,5-tetrahydrospiro[benzo[c]azepine-1,1’-cyclohexan]-5-ol] | 7.65 ± 2.56 µM | 7.6 ± 1.96 µM |  | 4.29 ± 0.56 µM | 12.6 ± 2.43 µM
 |  |  |  | COc1ccccc1-n1cc(CN2CCC(O)c3ccccc3C23CCCCC3)nn1 (centres unmarked) [Compound 11k, 2-((1-(2-methoxyphenyl)-1 H-1,2,3-triazol-4-yl)methyl)-2,3,4,5-tetrahydrospiro[benzo[c]azepine-1,1’-cyclohexan]-5-ol] | 10.5 ± 0.09 µM | 7.54 ± 1.05 µM |  | 12.6 ± 5.91 µM | 13.1 ± 2.03 µM
 |  |  |  | OC1CCN(Cc2cn(-c3ccc(Br)cc3)nn2)C2(CCCCC2)c2ccccc21 (centres unmarked) [Compound 11p, 2-((1-(4-bromophenyl)-1 H-1,2,3-triazol-4-yl)methyl)-2,3,4,5-tetrahydrospiro[benzo[c]azepine-1,1’-cyclohexan]-5-ol] | 12.7 ± 1.43 µM | 16.4 ± 4.37 µM |  | 9.58 ± 2.53 µM | 9.93 ± 3.01 µM
 |  |  |  | N#Cc1ccccc1-n1cc(CN2CCC(O)c3ccccc3C23CCCCC3)nn1 (centres unmarked) [Compound 11t, 2-(4-((5-hydroxy-4,5-dihydrospiro[benzo[c]azepine-1,1’-cyclohexan]-2(3 H)-yl)methyl)-1 H-1,2,3-triazol-1-yl)benzonitrile] | > 50 µM | > 50 µM |  | > 50 µM | > 50 µM
 |  |  |  | N#Cc1cccc(-n2cc(CN3CCC(O)c4ccccc4C34CCCCC4)nn2)c1 (centres unmarked) [Compound 11u, 3-(4-((5-hydroxy-4,5-dihydrospiro[benzo[c]azepine-1,1’-cyclohexan]-2(3 H)-yl)methyl)-1 H-1,2,3-triazol-1-yl)benzonitrile] | > 50 µM | > 50 µM |  | > 50 µM | > 50 µM
 |  |  |  | N#Cc1ccc(-n2cc(CN3CCC(O)c4ccccc4C34CCCCC4)nn2)cc1 (centres unmarked) [Compound 11v, 4-(4-((5-hydroxy-4,5-dihydrospiro[benzo[c]azepine-1,1’-cyclohexan]-2(3 H)-yl)methyl)-1 H-1,2,3-triazol-1-yl)benzonitrile] | > 50 µM | > 50 µM |  | > 50 µM | > 50 µM
2.41 ± 0.13 µM | 13 ± 0.28 µM | 4.91 ± 0.11 µM | 13.5 ± 0.17 µM | CNCc1ccc(-c2[nH]c3cc(F)cc4c3c2CCNC4=O)cc1 [Rucaparib, reference compound] |  |  |  |  | 
